ChEMBL document CHEMBL1201862, “PubChem BioAssay data set” (2004)
Each block holds one molecule with its values, some of them ahead of it. The source made the active and inactive calls.

Experiments:
[1] = target: G-protein coupled receptor 55 (Homo sapiens, UniProt Q9Y2T6); assay: inhibition of LPI-stimulated GPR55 beta-arrestin translocation – imaging, U2OS, beta-arrestin-GFP, LPI agonist, primary screen (AID 2013); format: functional;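 also: antagonist potency measured as reduced agonist-driven arrestin aggregation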
Phosphomannomutase 2 = target: T1, Phosphomannomutase 2 (Homo sapiens, UniProt O15305); assay: Counter screen SAR assay for PMM2 inhibitors via a fluorescence intensity assay. [Related pubchem assays (depositor defined):AID1545, AID1574]
T1 sequence (O15305 whole entry): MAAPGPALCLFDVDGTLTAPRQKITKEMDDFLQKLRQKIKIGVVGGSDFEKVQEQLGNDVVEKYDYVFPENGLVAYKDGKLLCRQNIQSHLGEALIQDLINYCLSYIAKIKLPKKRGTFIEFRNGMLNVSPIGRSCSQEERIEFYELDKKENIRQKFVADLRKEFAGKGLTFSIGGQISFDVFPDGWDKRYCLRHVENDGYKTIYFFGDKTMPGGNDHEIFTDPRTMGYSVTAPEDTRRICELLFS

[2] = target: T2, Mannose-6-phosphate isomerase (Homo sapiens, UniProt P34949); assay: phosphomannose isomerase inhibition – biochemical, fluorescence intensity, confirmation (AID 1535)
T2 sequence (P34949 whole entry): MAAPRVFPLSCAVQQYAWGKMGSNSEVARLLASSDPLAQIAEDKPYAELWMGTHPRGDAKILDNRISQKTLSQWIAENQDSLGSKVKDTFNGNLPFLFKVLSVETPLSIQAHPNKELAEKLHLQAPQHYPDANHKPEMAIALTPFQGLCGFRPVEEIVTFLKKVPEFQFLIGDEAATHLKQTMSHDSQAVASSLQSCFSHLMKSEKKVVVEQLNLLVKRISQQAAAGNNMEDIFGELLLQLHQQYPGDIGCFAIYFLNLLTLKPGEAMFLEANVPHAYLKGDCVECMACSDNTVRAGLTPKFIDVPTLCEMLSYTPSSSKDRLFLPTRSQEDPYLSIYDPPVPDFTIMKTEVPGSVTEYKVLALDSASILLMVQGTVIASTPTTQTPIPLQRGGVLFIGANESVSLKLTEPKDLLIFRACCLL

[3] = target: Phosphoethanolamine/phosphocholine phosphatase (Homo sapiens, UniProt Q8TCT1); assay: SAR assay for compounds that inhibit PHOSPHO1. [Related pubchem assays (depositor defined):AID1545, AID1565, AID1574]
[4] = target: T3, Alkaline phosphatase, tissue-nonspecific isozyme (Homo sapiens, UniProt P05186)
T3 sequence (P05186 whole entry): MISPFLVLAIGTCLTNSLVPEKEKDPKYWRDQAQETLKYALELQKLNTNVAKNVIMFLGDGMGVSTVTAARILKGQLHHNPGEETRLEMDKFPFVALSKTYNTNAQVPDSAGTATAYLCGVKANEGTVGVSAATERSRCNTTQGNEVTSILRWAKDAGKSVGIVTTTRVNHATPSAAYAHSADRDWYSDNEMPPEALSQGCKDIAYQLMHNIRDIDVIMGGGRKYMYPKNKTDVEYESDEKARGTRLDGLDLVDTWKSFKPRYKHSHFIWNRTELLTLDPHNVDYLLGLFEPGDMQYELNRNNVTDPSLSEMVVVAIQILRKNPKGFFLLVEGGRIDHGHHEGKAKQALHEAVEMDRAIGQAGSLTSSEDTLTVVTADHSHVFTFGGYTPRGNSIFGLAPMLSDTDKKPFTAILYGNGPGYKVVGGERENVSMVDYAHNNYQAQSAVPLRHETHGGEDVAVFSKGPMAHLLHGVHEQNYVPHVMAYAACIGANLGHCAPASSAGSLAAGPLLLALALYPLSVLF

[5] = target: T3, Alkaline phosphatase, tissue-nonspecific isozyme; assay: TNAP enzyme inhibition by screening hits, dose response, selectivity assay for mouse IAP inhibitor project, biochemical, human TNAP, uHTS hits (AID 488906); format: functional
[6] = Trypanosoma cruzi growth suppression in host cells – NIH3T3 host cells, beta-gal luminescence, confirmation (AID 2044); format: functional, cell-based;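 also: intracellular parasites grown in NIH/3T3 mouse fibroblasts as host cells; luminescent beta-galactosidase reporter signal from transgenic T. cruzi replicating inside host cells; inhibitors lower the luminescence signal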
[7] = target: Intestinal-type alkaline phosphatase (Homo sapiens, UniProt P09923); assay: activation of human intestinal alkaline phosphatase – biochemical, dose response (AID 488873); format: functional
[8] = NIH3T3 cell viability loss – ATP luminescence, mouse fibroblasts, counter-screen, dose response (AID 2010); format: functional, cell-based;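 also: cells exposed to compound for about 90 hours before reading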
[9] = target: Intestinal-type alkaline phosphatase (Mus musculus, UniProt P24822); assay: PubChem AID 488785; format: functional
Large T antigen = Large T antigen (Simian virus 40, UniProt P03070); format: functional, Betapolyomavirus macacae;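 also: Confirmatory-stage PubChem screen for compounds that inhibit SV40 T antigen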
[10] = target: Glucose-6-phosphate 1-dehydrogenase (Homo sapiens, UniProt P11413); assay: inhibition of Homo sapiens G6PD, dose series – biochemical, fluorescence, selectivity assay for P. falciparum G6PD inhibitor project, dose response (AID 504792); format: functional
[11] = target: Eukaryotic translation initiation factor 4E (Mus musculus, UniProt P63073); assay: blockers of eIF4G binding by eIF4E – biochemical, TR-FRET, dose response (AID 855); format: functional;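 also: potency for disrupting eIF4E binding to eIF4GI seen as loss of FRET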
[12] = target: T4, Carboxy-terminal domain RNA polymerase II polypeptide A small phosphatase 1 (Homo sapiens, UniProt Q9GZU7); assay: CTDSP1 inhibitors, concentration-response, biochemical, absorbance readout, ultra-high-throughput screen actives (AID 540297); format: functional
T4 sequence (Q9GZU7 whole entry): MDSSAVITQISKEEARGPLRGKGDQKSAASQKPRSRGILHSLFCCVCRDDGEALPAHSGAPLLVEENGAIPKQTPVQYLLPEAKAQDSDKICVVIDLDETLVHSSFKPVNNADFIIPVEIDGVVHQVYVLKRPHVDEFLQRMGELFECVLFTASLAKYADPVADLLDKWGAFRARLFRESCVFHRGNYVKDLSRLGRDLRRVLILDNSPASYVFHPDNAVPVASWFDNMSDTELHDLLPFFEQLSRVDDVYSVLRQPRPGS

[13] = target: Female germline-specific tumor suppressor gld-1 (Caenorhabditis elegans, UniProt Q17339); assay: blockers of GLD-1/TGE RNA complex formation – biochemical, fluorescence polarization, C. elegans, dose response (AID 2802);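 also: fluorescence polarization of labeled TGE RNA bound by purified gld-1 protein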
Protein Rev = Protein Rev (Human immunodeficiency virus type 1 group M subtype B (isolate HXB2)(HIV-1), UniProt P04618); assay: blockers of HIV Rev/RRE RNA complex – biochemical, fluorescence polarization, HIV-1, dose response (AID 434976); set-up: species or system Human immunodeficiency virus 1
Sequence of Protein Rev (P04618 whole entry): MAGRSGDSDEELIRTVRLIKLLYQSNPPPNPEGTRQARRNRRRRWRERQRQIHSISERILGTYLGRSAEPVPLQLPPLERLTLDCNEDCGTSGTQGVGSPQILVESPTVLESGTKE

Sequence of Phosphoethanolamine/phosphocholine phosphatase (Q8TCT1 whole entry): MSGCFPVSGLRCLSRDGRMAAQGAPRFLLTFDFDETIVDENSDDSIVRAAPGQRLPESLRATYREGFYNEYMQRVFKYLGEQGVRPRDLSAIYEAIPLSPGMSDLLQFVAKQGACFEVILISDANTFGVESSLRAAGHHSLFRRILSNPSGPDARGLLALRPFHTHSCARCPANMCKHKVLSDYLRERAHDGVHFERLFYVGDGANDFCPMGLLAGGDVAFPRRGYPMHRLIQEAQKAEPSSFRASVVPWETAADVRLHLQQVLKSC
Sequence of Eukaryotic translation initiation factor 4E (P63073 whole entry, the tested form may be a part): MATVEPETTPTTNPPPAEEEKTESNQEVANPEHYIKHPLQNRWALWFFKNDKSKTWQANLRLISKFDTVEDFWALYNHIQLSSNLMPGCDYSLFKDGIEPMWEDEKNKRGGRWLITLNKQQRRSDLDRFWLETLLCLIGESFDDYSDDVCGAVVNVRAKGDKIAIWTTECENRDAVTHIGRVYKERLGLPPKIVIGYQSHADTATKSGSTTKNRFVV
Sequence of Female germline-specific tumor suppressor gld-1 (Q17339 whole entry): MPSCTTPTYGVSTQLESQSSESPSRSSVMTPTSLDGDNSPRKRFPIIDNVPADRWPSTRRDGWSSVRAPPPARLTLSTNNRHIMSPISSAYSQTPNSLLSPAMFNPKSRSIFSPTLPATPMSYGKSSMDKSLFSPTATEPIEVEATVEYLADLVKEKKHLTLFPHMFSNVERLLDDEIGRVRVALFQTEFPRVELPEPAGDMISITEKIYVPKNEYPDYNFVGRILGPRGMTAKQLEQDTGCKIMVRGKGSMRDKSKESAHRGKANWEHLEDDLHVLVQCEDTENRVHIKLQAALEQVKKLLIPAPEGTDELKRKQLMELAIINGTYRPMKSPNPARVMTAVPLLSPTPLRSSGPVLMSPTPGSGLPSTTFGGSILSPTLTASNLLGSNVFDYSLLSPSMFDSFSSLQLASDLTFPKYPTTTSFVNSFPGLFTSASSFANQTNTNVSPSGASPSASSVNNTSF
Sequence of Intestinal-type alkaline phosphatase (Mus musculus, UniProt P24822) (P24822 whole entry): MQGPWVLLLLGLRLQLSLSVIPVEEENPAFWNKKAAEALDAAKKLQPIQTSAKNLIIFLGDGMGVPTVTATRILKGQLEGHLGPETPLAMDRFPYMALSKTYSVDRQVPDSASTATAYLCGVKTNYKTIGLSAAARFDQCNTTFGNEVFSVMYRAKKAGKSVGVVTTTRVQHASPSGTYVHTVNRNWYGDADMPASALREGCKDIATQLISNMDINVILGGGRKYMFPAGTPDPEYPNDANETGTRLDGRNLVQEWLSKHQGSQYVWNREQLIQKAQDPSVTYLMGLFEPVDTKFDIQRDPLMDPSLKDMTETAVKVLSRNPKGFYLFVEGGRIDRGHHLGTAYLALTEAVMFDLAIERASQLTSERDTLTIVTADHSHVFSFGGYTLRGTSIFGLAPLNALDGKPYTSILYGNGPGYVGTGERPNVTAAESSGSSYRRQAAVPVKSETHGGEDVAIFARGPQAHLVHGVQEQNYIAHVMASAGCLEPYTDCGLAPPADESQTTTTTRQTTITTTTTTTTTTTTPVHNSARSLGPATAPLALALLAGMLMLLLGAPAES
Sequence of G-protein coupled receptor 55 (Q9Y2T6 whole entry): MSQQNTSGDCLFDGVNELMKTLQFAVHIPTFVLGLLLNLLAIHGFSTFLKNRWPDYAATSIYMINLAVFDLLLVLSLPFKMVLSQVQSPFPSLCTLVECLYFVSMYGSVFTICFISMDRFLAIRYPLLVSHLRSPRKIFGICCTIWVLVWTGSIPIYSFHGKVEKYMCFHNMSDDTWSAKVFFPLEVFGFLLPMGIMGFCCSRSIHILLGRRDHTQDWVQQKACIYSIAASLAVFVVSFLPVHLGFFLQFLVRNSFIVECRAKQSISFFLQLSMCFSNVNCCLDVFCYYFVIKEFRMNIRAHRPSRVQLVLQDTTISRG
Sequence of Intestinal-type alkaline phosphatase (Homo sapiens, UniProt P09923) (P09923 whole entry): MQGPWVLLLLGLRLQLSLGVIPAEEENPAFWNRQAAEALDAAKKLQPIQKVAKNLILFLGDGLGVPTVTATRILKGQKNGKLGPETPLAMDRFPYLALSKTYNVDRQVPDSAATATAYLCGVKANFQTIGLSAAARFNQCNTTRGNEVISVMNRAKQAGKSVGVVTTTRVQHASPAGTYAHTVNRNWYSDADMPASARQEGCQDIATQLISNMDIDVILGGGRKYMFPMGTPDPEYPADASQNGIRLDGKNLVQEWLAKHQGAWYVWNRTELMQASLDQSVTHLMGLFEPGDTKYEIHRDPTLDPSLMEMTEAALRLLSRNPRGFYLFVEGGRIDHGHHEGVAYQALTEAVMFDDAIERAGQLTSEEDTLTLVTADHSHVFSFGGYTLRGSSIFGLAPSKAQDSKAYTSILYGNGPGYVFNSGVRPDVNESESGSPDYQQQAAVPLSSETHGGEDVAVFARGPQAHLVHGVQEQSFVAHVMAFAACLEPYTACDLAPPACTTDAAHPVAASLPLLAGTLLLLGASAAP
Sequence of Large T antigen (P03070 whole entry): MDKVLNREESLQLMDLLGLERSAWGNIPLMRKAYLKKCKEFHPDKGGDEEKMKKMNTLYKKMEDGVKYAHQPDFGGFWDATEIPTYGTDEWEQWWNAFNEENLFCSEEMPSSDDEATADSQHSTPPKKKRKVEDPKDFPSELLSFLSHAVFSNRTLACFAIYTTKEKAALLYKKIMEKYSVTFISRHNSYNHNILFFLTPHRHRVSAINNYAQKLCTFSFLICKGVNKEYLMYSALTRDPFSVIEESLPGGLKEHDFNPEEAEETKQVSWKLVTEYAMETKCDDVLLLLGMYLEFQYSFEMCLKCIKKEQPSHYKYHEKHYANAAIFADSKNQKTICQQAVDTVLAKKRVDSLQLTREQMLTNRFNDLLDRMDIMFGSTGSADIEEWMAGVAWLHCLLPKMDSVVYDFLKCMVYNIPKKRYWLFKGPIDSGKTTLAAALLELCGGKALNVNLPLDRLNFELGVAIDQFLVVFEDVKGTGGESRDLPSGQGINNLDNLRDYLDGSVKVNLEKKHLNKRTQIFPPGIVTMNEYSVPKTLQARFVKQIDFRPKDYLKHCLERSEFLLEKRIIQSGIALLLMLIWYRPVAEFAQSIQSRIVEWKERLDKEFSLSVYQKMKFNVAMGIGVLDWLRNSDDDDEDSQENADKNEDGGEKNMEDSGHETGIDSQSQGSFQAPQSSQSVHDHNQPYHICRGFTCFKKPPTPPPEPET
Sequence of Glucose-6-phosphate 1-dehydrogenase (P11413 whole entry): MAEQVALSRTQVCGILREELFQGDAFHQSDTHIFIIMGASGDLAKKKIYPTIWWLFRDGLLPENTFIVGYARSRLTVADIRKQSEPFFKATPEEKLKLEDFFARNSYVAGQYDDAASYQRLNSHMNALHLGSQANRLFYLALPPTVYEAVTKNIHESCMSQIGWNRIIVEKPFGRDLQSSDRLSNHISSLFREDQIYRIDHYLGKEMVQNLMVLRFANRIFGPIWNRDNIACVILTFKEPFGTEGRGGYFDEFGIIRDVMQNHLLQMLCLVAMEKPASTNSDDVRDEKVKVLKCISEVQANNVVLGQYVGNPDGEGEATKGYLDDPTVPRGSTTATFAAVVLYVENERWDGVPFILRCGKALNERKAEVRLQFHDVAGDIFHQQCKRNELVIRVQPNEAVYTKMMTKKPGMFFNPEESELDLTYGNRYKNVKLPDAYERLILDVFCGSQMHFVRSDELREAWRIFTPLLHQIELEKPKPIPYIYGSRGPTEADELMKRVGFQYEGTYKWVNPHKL

- IC50 [1]: 1.27 µM (active)
Structure (SMILES): CC(=O)Oc1ccc2ccccc2c1C(NC(=O)Cc1ccccc1)c1ccccc1 (centres undefined)

- IC50 (Phosphomannomutase 2): > 100 µM (inactive)
- IC50 [2]: 23.7 µM (active)
- IC50 [3]: 11.6 µM (inactive)
Structure (SMILES): O=c1c2ccccc2sn1-c1cccc(C(F)(F)F)c1

Structure (SMILES): CCOC(=O)c1ccc(N2CCN(c3ccccc3F)CC2)c(NC(=O)Nc2cccc(OC)c2)c1
- EC50 [4]: > 100 µM (not active)
- IC50 [5]: > 100 µM (inactive)
- EC50 [6]: 1.39 µM (active)
- EC50 [7]: > 100 µM (inactive)
- EC50 [8]: > 60 µM (inconclusive)
- IC50 [9]: 6.54 µM (active)

Structure (SMILES): O=c1c2ccccc2sn1-c1cc(S(=O)(=O)N2CCOCC2)ccc1N1CCCC1
- IC50 (Large T antigen): 11.7 µM (active)
- IC50 [10]: 14.3 µM (active)
- IC50 (Phosphomannomutase 2): 29.8 µM (active)
- IC50 [11]: 34.5 µM (inactive)
- IC50 [2]: 7.51 µM (active)
- IC50 [3]: 10.7 µM (inactive)
- IC50 [12]: 11 µM (active)

Structure (SMILES): CC(C)CCN(C(=O)CCCSc1nc2ccccc2[nH]1)c1c(N)n(Cc2ccccc2)c(=O)[nH]c1=O
- IC50 [13]: 3.12 µM (active)
- IC50 (Protein Rev): > 8.38 µM (active)
